Assay results reported in paper PMC3265452 (PLoS Neglected Tropical Diseases, 2012).
Where a name gives a salt, the structure may show the parent alone. Read-outs that look alike come from different tables or passages of the source.

Target: AaDOP2 (Aedes aegypti, UniProt H6D5H2)
Assay: AaDOP2 antagonist screen of the LOPAC1280 library (HEK-CRELuc-Aadop2 cells, luminescence)
Format: cell-based
[1] = 10 µM compound, 300 nM dopamine, 2 hr, hit = compound effect <20

Chain of AaDOP2 (H6D5H2 1-476): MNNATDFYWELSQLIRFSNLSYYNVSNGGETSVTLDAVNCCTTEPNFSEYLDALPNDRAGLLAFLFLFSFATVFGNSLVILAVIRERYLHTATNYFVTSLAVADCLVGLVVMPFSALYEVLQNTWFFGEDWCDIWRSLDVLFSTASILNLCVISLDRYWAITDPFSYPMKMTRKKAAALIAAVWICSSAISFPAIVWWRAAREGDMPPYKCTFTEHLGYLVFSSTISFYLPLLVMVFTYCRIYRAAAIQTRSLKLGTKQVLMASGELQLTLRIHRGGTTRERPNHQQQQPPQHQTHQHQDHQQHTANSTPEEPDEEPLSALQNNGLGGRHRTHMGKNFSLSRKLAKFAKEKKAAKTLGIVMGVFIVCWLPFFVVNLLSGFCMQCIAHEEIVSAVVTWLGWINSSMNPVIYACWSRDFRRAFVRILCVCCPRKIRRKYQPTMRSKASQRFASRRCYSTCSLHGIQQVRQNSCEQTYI

Row | Structure (SMILES) | Compound effect (percent receptor signaling in presence of test compound, relative lux units relative to the SCH23390 control) | also measured
1 | O=C1NC(=O)C(c2ccccc2)(c2ccccc2)N1 [Compound 382, 5,5-Diphenylhydantoin] | 96 | 
2 | CN(C)C(N)=NCCC[C@H](N)C(=O)O.Cl [Compound 383, N^G,N^G-Dimethylarginine hydrochloride] |  | Compound effect (percent receptor signaling in presence of test compound, relative lux units relative to the SCH23390 control) [1]: 106%
3 | O=P(O)(O)C(Cl)(Cl)P(=O)(O)O [Compound 384, Clodronic acid] | 83 | 
4 | O=C1NC(=O)C(c2ccccc2)(c2ccccc2)N1 [Compound 385, Phenytoin sodium] | 77 | 
5 | CC(C)NC[C@H](O)COc1cccc2[nH]ccc12 [Compound 387, S(-)-Pindolol] | 91 | 
6 | COc1cc(C(=O)OCCCN2CCCN(CCCOC(=O)c3cc(OC)c(OC)c(OC)c3)CC2)cc(OC)c1OC [Compound 389, Dilazep hydrochloride] | 62 | 
7 | C[C@]12CC[C@H](OS(=O)(=O)[O-])CC1=CC[C@@H]1[C@@H]2CC[C@]2(C)C(=O)CC[C@@H]12.[Na+] [Compound 390, Dehydroisoandrosterone 3-sulfate sodium] | 94 | 
8 | Cn1c(=O)[nH]c2ncn(C)c2c1=O [Compound 391, 1,7-Dimethylxanthine] | 94 | 
9 | COC1=C(OC)C(=O)c2ccccc2C1=O [Compound 392, 2,3-Dimethoxy-1,4-naphthoquinone] | 45 | 
10 | O=c1ccc2ccc(O)c(O)c2o1 [Compound 393, Daphnetin] | 74 | 
11 | CCC(=O)N1CCN(C(=O)c2ccccc2)CC1 [Compound 394, DM 235] | 101 | 
12 | CC1(C)CCC=[N+]1[O-] [Compound 395, 5,5-Dimethyl-1-pyrroline-N-oxide] | 94 | 
13 | Nc1ccn([C@H]2CC[C@@H](CO)O2)c(=O)n1 [Compound 396, 2',3'-dideoxycytidine] | 102 | 
14 | O=c1c2ccccc2[nH]c(=S)n1CCN1CCC(=C(c2ccc(F)cc2)c2ccc(F)cc2)CC1 [Compound 397, Diacylglycerol Kinase Inhibitor II] | 74 | 
15 | CNCCc1ccc(O)c(O)c1.Cl [Compound 399, N-Methyldopamine hydrochloride] | 94 | 
16 | C[N+]1(C)CCN(c2ccccc2)CC1.[I-] [Compound 400, 1,1-Dimethyl-4-phenyl-piperazinium iodide] | 87 | 
17 | Cc1nc2sccn2c(=O)c1CCN1CCC(=C(c2ccccc2)c2ccc(F)cc2)CC1 [Compound 401, Diacylglycerol kinase inhibitor I] |  | % of the SCH23390 effect (percent inhibition of receptor response relative to the SCH23390 control) (10 µM compound, 300 nM dopamine, 2 hr): 90%; Compound effect (percent receptor signaling in presence of test compound, relative lux units relative to the SCH23390 control) [1]: 10%
18 | CC(C)N(CCC(C(N)=O)(c1ccccc1)c1ccccn1)C(C)C (stereo not drawn) [Compound 402, Disopyramide phosphate] | 104 | 
19 | CN(C)[C@@H]1C(O)=C(C(N)=O)C(=O)[C@@]2(O)C(O)=C3C(=O)c4c(O)ccc(Cl)c4[C@@H](O)[C@H]3C[C@@H]12 [Compound 403, Demeclocycline hydrochloride] | 84 | 

Row | Structure (SMILES) | Compound effect (percent receptor signaling in presence of test compound, relative lux units relative to the SCH23390 control) | also measured
20 | O=C(O)CN(CCN(CC(=O)O)CC(=O)O)CCN(CC(=O)O)CC(=O)O [Compound 404, Diethylenetriaminepentaacetic acid] |  | Compound effect (percent receptor signaling in presence of test compound, relative lux units relative to the SCH23390 control) [1]: 118%
21 | O=C(O)Cc1ccccc1Nc1c(Cl)cccc1Cl [Compound 405, Diclofenac sodium] | 94 | 
22 | c1ccc(-c2ccccn2)nc1 [Compound 408, 2,2'-Bipyridyl] | 94 | 
23 | CC(C)N(CCC(C(N)=O)(c1ccccc1)c1ccccn1)C(C)C (stereo not drawn) [Compound 409, Disopyramide] | 95 | 
24 | O=c1c(-c2ccc(O)cc2)coc2cc(O)ccc12 [Compound 410, Daidzein] | 47 | 
25 | COc1c2c(nc3ccccc13)OC(C(C)(O)CO)C2 (stereo not drawn) [Compound 411, Dubinidine] |  | Compound effect (percent receptor signaling in presence of test compound, relative lux units relative to the SCH23390 control) [1]: 100%
26 | O=c1oc(Cl)c(Cl)c2ccccc12 [Compound 413, 3,4-Dichloroisocoumarin] | 96 | 
27 | Clc1ccc(N2C[C@H]3CC[C@@H](C2)N3)nn1 [Compound 414, DBO-83] | 100 | 
28 | CCCCCCCCCCC/C=C\C(C)(C)/C=C\CCCC(=O)O [Compound 415, 7,7-Dimethyl-(5Z,8Z)-eicosadienoic acid] |  | Compound effect (percent receptor signaling in presence of test compound, relative lux units relative to the SCH23390 control) [1]: 82%
29 | CN(N=O)c1cc(O)ccc1O [Compound 417, Dephostatin] | 111 | 
30 | N/C(=N\C(=O)c1nc(Cl)c(N)nc1N)NCc1ccc(Cl)c(Cl)c1 [Compound 418, 3',4'-Dichlorobenzamil] |  | Compound effect (percent receptor signaling in presence of test compound, relative lux units relative to the SCH23390 control) [1]: 73%
31 | Nc1nccc2c1ncn2[C@@H]1O[C@H](CO)[C@@H](O)[C@H]1O [Compound 419, 3-deazaadenosine] | 59 | 
32 | C/C=C1\C(=O)C[C@H]2[C@@H]3CCC4=CC(=O)CC[C@]4(C)[C@H]3CC[C@]12C [Compound 420, (Z)-Gugglesterone] |  | Compound effect (percent receptor signaling in presence of test compound, relative lux units relative to the SCH23390 control) [1]: 91%
33 | C#C[C@]1(O)CC[C@H]2[C@@H]3CCC4=Cc5oncc5C[C@]4(C)[C@H]3CC[C@@]21C [Compound 421, Danazol] | 83 | 
34 | CCCCCCN(CCCCCC)C(=O)Cc1c(-c2ccc(F)cc2)[nH]c2ccccc12 [Compound 422, N,N-Dihexyl-2-(4-fluorophenyl)indole-3-acetamide] | 93 | 
35 | Oc1c2ccccc2c2c3c(cccc13)N=N2 [Compound 424, SP600125] | 101 | 
36 | CC1=NS(=O)(=O)c2cc(Cl)ccc2N1 [Compound 425, Diazoxide] | 115 | 
37 | O=C(O)Cc1ccc(O)c(O)c1 [Compound 426, 3,4-Dihydroxyphenylacetic acid] | 120 | 
38 | O=C1CN(/N=C/c2ccc(-c3ccc([N+](=O)[O-])cc3)o2)C(O)=N1 [Compound 427, Dantrolene sodium] | 100 | 
